System: capillary permeability brought about by septide (substance P agonist)
Test: inhibition of the increase of capillary permeability brought about by septide
Type: in vivo
Details: Cavia porcellus, guinea pig, septide-induced capillary permeability
Text: The study of certain isoindole derivatives of general formula (I) in the technique of A. Saria et al., Arch.

With COc1ccccc1[C@H](C)C(=O)N1C[C@H]2C[C@H](C)C[C@](O)(c3ccccc3OC)[C@H]2C1 (relative stereo) [Example 1, (3aR*,4R*,6S*,7aS*)-4-(2-methoxyphenyl)-2-[2-(S)-(2-methoxyphenyl)propionyl]-6-methyl-4-perhydroisoindolol] the ED50 (iv) was 0.07 mg/kg and the ED50 (po) was 3 to 10 mg/kg.

Reference: patent publication US5624950A, “Perhydroisoindole derivatives as substance P antagonists” (Rhone-Poulenc Rorer S.A., priority 1993, dated 1997)
